# From US9603878B2, “Probiotic and prebiotic compositions, and methods of use thereof for treatment and prevention of graft versus host disease” (Evelo Biosciences, Inc., priority 2014, dated 2017)
# Tests used:
# [1] = test system: Tregs in the large intestine; details: germ-free mice and vancomycin-treated conventional mice; cited from earlier work
# tumors = details: oral administration; anti-PD-1 / anti-CTLA-4 antibody therapy; cited from earlier work
# C57B1/6 female mice = details: mouse, in vivo
# Method: The possibility that modification of the microbiome in a given physical location may influence the microbiome at other sites in the body (distal augmentation) was investigated. Seven week old C57B1/6 female mice were acclimatized for 7 days prior to the start of the study by daily handling and shuffling between cages. All mice were housed at three mice per cage in individually vented cages (Thoren, Hazleton, Pa.). At day 0, baseline fresh fecal pellets, and vaginal lavages with 100 μL of sterile double-distilled water were collected and immediately frozen at −80° C. for microbiome analysis. […] Water alone is not expected to influence the microbiome and acted as a negative control. […] The impact of oral vancomycin is therefore expected to be limited to the gastrointestinal tract such that microbiome changes elsewhere in the body (e.g. vagina) would be attributable to distal augmentation. At day 6, fresh fecal pellets and vaginal lavages with 100 μL of sterile double-distilled water were collected and immediately stored at −80° C. for microbiome analysis.
# Isolation and sequencing of microbial DNA from the stool and vaginal samples was performed by DNA Genotek (Ottawa, ON, Canada). The V3-V4 region of the 16S ribosomal subunit was amplified with custom PCR primers and sequenced on an Illumina MiSeq to a minimum acceptable read depth of 25,000 sequences per sample. […]
# blautia = test: Sugar fermentation/growth in media lacking glucose (pH and optical density)
# Lactobacillus johnsonii = test: as above
# [2] = test system: healthy, adult volunteers; details: human, in vivo
# Method: D-xylose is a carbon source generally preferred by anaerobic bacteria. […] A parallel, double-blind, 5 cohort escalation food safety study was conducted to examine D-xylose in normal human volunteers. The study was a double-blind, single-center, parallel group study designed to evaluate the tolerability and potential microbiome changes induced by ingestion of D-xylose at 5 different amounts in healthy, adult volunteers enrolled at 1 study center in the United States (US).
# Subjects were screened for eligibility within 21 days prior to the first planned ingestion of study sweetener on Day 1 (Baseline). […]
# Subjects returned to the study center weekly on Days 8, 15, 22, and 28 for ingestion, tolerability, and compliance evaluations. Safety was evaluated on a continual basis through adverse events (AE) monitoring, clinical laboratory measurements, vital sign monitoring, physical examinations, electrocardiograms (ECGs), telephone follow-up, and electronic subject ingestion diaries. Stool was collected pre-ingestion and at pre-specified time points, and post-ingestion samples were evaluated for changes in the gut microbiome compared with Baseline for all subjects. […]
# Safety was evaluated on a continual basis through AE monitoring, clinical laboratory measurements, vital sign monitoring, physical examinations, ECGs, telephone follow-up, and electronic subject ingestion diaries. […]
# gut microbiome = test: Normal human volunteer study of D-xylose: changes in the gut microbiome (stool 16S); format: in vivo; details: for alpha diversity of the gut microbiome: over time on study
# [3] = test system: healthy, adult volunteers; test: Normal human volunteer study of D-xylose: CRP, serum cytokines, T-cell markers; format: in vivo
# Source text: Blood was collected at pre-specified pre- and post-ingestion time points to evaluate C-reactive protein (CRP), serum cytokines (tumor necrosis factor alpha [TNF-α], interleukin [IL]-2, IL-6, interferon gamma [IFN-γ], and IL-10), and T-cell markers CD3, CD4, CD8, CD25, and FOXP3. Plasma was also stored and may be tested for biomarkers and/or metabolic markers for up to 7 years.
# Summary statistics (n, mean, standard deviation, median, minimum, and maximum) were presented for serum concentrations of CRP, flow cytometry T-cell markers (CD3, CD4, CD8, CD25, and FOXP3), and cytokines (TNF-α, IL-2, IL-6, IFN-γ, and IL-10) as per their nominal time points.
# mice with GVHD = test: Xylose in drinking water in experimental GVHD model after BMT; format: in vivo, mouse
# normal mice = test: Mouse study: gut microbiome after xylose treatment; format: in vivo
molecule,measurement,setting,value
CC(=O)O [acetate],numbers of Tregs in the large intestine,[1],restored normal numbers of Tregs in the large intestine
Bacteroides,responsiveness to checkpoint inhibitor therapy in cancer,tumors,increases the responsiveness
CN[C@H](CC(C)C)C(=O)N[C@H]1C(=O)N[C@@H](CC(N)=O)C(=O)N[C@H]2C(=O)N[C@H]3C(=O)N[C@H](C(=O)N[C@H](C(=O)O)c4cc(O)cc(O)c4-c4cc3ccc4O)[C@H](O)c3ccc(c(Cl)c3)Oc3cc2cc(c3O[C@@H]2O[C@H](CO)[C@@H](O)[C@H](O)[C@H]2O[C@H]2C[C@](C)(N)[C@H](O)[C@H](C)O2)Oc2ccc(cc2Cl)[C@H]1O [vancomycin],"impact on the microbiome of the gut (PCA, family level)",C57B1/6 female mice,strong impact on the microbiome of the gut
same,"impact on the vaginal microbiome (PCA, family level)",C57B1/6 female mice,showed an overall difference between the PBS and oral vancomycin groups
C[C@H](O)[C@H](O)[C@@H](O)[C@@H](O)C=O [rhamnose],augmentation / fermentation by blautia,blautia,specifically augments blautia
same,augmentation / fermentation by lactobacillus,Lactobacillus johnsonii,not lactobacillus
"O=C[C@H](O)[C@@H](O)[C@H](O)CO [xylose, D-xylose]",augmentation / fermentation by blautia,blautia,specifically augments blautia
same,"SAEs, severe AEs, deaths",[2],"No SAEs, severe AEs, or subject deaths were reported"
same,gut microbiome community composition over time,gut microbiome; regardless of ingestion amount,no significant changes in community composition
same,alpha diversity of the gut microbiome,gut microbiome; regardless of ingestion amount,no major shifts in the microbiome alpha diversity
same,alpha diversity of the gut microbiome,"gut microbiome; regardless of ingestion amount, listed as D-xylose",no apparent significant impact on the intra-sample alpha diversity of the gut microbiome
same,Chao diversity index over time,"gut microbiome; xylose TID at 1, 2, 8, 12.5 or 15 grams",overall decrease in the Chao diversity index over time
same,total T-cells and T-cell subsets over time,[3]; any ingestion amount,No consistent or clinically meaningful changes over time in total T-cells or any T-cell subsets
same,subjects with normal serum CRP at Baseline and at least 1 post-ingestion CRP value >2.9 mg/L,[3]; cohorts combined,8.3%
same,"serum cytokines (TNF-α, IL-2, IL-6, IFN-γ, IL-10) over time",[3]; most data points BLQ,did not indicate any consistent or clinically meaningful changes over time
same,augmentation / fermentation by lactobacillus,Lactobacillus johnsonii,not lactobacillus
same,survival of mice with GVHD,mice with GVHD; long-term administration,led to improved survival of mice with GVHD
same,Blautia in the intestinal flora,"mice with GVHD; xylose in drinking water, day 14 after BMT",lead to an expansion of Blautia in the intestinal flora
same,shifts in the gut microbiome,normal mice,did not cause major shifts in the gut microbiome but showed some differences at the family level
CCC(=O)O [propionate],numbers of Tregs in the large intestine,[1],restored normal numbers of Tregs in the large intestine
Bifidobacterium,responsiveness to checkpoint inhibitor therapy in cancer,tumors,increases the responsiveness
